Legend:
melanoma = melanoma patients; cited from earlier work
CYP1A2 [1] = test system: CYP1A2
CYP3A4 [2] = test system: CYP3A4
CYP2C9 = CYP2C9 (Homo sapiens, UniProt P11712)
CYP3A4 [3] = molecular target: CYP3A4 (Homo sapiens, UniProt P08684)
CYP2C8 = molecular target: T1, CYP2C8 (Homo sapiens, UniProt P10632)
T1 sequence (P10632 1-490): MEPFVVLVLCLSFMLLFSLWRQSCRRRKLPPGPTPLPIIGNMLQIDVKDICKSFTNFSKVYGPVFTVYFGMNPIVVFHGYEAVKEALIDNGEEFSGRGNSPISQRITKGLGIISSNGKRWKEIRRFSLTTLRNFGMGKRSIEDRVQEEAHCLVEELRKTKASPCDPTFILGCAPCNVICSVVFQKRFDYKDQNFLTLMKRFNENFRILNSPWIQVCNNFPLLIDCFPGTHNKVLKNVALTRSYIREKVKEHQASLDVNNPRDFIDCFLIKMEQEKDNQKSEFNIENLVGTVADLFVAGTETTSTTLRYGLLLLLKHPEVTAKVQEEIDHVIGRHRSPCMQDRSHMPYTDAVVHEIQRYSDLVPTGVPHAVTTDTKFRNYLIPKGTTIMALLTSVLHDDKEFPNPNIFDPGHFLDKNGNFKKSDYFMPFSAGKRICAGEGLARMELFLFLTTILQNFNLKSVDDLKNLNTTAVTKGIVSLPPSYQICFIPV

CYP2C19 = CYP2C19 (Homo sapiens, UniProt P33261)
CYP1A2 [4] = molecular target: CYP1A2 (Homo sapiens, UniProt P05177); details: human liver CYP isoenzymes; preclinical studies
CYP2D6 = CYP2D6 (Homo sapiens, UniProt P10635)
[5] = in vivo; cited from earlier work

Sequence of CYP2D6 (P10635 whole entry): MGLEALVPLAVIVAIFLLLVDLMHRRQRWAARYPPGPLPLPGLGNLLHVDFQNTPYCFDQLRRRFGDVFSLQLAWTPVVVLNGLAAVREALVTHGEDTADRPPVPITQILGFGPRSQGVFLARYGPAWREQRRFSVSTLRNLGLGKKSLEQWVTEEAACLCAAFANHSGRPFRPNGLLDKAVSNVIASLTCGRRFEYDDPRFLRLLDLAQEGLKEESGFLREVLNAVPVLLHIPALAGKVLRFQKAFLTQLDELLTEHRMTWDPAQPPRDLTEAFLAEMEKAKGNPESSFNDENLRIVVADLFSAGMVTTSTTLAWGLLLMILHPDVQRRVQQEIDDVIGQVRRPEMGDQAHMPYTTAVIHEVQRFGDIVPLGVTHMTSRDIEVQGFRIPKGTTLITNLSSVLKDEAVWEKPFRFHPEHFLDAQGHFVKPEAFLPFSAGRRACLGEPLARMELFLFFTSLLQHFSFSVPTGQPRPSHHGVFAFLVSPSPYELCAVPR
Sequence of CYP3A4 (Homo sapiens, UniProt P08684) (P08684 whole entry): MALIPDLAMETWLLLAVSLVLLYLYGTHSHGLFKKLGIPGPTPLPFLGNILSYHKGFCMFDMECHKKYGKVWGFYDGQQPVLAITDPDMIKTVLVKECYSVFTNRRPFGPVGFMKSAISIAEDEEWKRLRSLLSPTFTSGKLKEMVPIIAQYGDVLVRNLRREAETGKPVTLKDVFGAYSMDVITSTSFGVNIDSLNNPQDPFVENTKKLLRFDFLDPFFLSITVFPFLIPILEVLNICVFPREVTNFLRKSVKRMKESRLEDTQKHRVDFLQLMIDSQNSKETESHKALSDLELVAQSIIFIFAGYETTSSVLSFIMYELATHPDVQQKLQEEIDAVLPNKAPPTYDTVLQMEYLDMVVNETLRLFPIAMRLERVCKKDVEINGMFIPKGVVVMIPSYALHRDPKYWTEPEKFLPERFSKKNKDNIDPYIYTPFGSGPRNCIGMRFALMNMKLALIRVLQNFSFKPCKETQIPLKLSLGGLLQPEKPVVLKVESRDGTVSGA
Sequence of CYP1A2 (Homo sapiens, UniProt P05177) (P05177 whole entry): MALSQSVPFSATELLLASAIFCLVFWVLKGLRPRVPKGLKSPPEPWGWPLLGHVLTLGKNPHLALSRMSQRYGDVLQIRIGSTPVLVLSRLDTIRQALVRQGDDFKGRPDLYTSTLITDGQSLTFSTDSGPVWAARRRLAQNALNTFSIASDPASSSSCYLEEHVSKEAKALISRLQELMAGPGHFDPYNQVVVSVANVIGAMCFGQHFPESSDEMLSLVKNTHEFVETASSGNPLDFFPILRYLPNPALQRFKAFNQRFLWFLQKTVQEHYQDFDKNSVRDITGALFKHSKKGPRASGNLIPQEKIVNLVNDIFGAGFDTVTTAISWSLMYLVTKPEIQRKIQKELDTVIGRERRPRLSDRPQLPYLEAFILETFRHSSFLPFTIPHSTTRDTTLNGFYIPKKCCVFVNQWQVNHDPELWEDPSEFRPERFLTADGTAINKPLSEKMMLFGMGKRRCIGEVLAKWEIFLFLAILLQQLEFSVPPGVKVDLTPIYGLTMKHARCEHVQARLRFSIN
Sequence of CYP2C19 (P33261 whole entry): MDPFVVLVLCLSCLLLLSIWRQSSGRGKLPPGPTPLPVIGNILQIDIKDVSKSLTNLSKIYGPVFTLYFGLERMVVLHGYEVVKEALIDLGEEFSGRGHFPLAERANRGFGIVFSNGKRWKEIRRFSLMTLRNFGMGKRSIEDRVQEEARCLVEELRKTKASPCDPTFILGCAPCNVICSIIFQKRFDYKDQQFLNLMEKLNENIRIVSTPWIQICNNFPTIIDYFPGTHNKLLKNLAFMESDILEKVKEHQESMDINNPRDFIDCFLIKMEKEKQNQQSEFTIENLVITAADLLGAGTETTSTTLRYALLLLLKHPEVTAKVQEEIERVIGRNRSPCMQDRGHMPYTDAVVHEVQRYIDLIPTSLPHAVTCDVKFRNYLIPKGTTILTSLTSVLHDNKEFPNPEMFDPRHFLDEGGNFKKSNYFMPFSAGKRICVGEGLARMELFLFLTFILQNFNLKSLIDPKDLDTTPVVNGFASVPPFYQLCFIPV
Sequence of CYP2C9 (P11712 whole entry): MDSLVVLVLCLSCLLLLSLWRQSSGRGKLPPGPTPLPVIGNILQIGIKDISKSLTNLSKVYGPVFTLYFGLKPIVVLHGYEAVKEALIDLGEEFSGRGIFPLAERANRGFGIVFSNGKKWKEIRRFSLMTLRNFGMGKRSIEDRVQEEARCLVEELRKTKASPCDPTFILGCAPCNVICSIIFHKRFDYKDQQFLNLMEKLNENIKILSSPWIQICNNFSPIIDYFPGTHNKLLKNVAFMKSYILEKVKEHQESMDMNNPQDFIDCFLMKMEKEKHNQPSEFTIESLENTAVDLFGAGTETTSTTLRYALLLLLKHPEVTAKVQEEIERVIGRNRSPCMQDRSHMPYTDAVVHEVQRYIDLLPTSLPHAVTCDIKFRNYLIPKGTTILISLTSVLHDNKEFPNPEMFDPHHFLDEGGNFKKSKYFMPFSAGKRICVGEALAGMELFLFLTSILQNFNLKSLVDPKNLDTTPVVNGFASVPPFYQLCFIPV

For “Nivolumab: PD-1 antagonist antibody, checkpoint inhibitor”, the Response rate (melanoma) is given as 32%.

In the case of Talabostat mesylate, the “Induction of CYP1A2” value (CYP1A2 [1]) is reported as “did not induce”, the “Induction of CYP3A4” value (CYP3A4 [2]) is reported as “did not induce” and the “Potential to inhibit CYP2C9” value (CYP2C9) is reported as “low potential”. The “Potential to inhibit CYP3A4” value (CYP3A4 [3]) was “low potential”, the “Potential to inhibit CYP2C8” value (CYP2C8) was “low potential” and the “Potential to inhibit CYP2C19” value (CYP2C19) was “low potential”. The “Potential to inhibit CYP1A2” value (CYP1A2 [4]) was “low potential”, the “Potential to inhibit CYP2D6” value (CYP2D6) was “low potential” and the “Most common / most frequently observed adverse events” value [5] was “edema/peripheral swelling, hypotension, dizziness, and hypovolemia”.

For CC(C)[C@H](N)C(=O)N1CCC[C@H]1B(O)O [Talabostat, [(2R)-1-[(2S)-2-amino-3-methylbutanoyl]pyrrolidin-2-yl]boronic acid], the “Most common / most frequently observed adverse events” value [5] is listed as “edema/peripheral swelling, hypotension, hypovolemia, and dizziness”.

In the case of “Ipilimumab: CTLA-4 antagonist antibody, checkpoint inhibitor”, the Response rate (melanoma) is listed as 11%.

Reference: patent US20220089733A1, “NOVEL APPROACH FOR TREATMENT OF CANCER USING IMMUNOMODULATION” (BioXcel Therapeutics, Inc., priority 2018, published 2022)
